The structures appear in SMILES notation.

For assay [1], the target named is PI3K-δ (PI3K(p1108/p857) (h)) (Homo sapiens, UniProt O00329). As to the kind of experiment: Evaluation of inhibitory activity against PI3K-δ (HTRF kinase assay). Type of assay: biochemical. Particulars: for inhibition at 0.1 µM: compound at 0.1 μM, read-out: EXP_VALUE(% Inhibition) PI3K-δ 0.1 μM. In short, it runs like this:
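HTRF read-out (665/620 nm ratio ×10000) used Eu-labelled anti-GST, GST-tagged GRP1 PH domain and streptavidin-allophycocyanin after EDTA/PIP3 stop.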

Assay [2] has as its target DNA-PK(h) (Homo sapiens, UniProt P78527). As to the kind of experiment: Evaluation of inhibitory activity against DNA-PK (HTRF kinase assay, GST-cMyc-p53 substrate). It is filed as biochemical. The conditions noted are these: for inhibition at 0.1 µM: compound at 0.1 μM, read-out: EXP_VALUE(% Inhibition) DNA-PK(h) 0.1 μM. In short, it runs like this:
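Human DNA-PK with 50 μM GST-cMyc-p53 substrate; reaction started with Mg/ATP, run 30 min at room temperature, stopped with EDTA. Phospho-Ser15 p53 detected by HTRF (Eu anti-phospho-Ser15, d2 anti-GST), signal = 10000×(Em 665/Em 620).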

PI3K-δ (PI3K(p1108/p857) (h)), sequence (O00329 whole entry, the tested form may be a part): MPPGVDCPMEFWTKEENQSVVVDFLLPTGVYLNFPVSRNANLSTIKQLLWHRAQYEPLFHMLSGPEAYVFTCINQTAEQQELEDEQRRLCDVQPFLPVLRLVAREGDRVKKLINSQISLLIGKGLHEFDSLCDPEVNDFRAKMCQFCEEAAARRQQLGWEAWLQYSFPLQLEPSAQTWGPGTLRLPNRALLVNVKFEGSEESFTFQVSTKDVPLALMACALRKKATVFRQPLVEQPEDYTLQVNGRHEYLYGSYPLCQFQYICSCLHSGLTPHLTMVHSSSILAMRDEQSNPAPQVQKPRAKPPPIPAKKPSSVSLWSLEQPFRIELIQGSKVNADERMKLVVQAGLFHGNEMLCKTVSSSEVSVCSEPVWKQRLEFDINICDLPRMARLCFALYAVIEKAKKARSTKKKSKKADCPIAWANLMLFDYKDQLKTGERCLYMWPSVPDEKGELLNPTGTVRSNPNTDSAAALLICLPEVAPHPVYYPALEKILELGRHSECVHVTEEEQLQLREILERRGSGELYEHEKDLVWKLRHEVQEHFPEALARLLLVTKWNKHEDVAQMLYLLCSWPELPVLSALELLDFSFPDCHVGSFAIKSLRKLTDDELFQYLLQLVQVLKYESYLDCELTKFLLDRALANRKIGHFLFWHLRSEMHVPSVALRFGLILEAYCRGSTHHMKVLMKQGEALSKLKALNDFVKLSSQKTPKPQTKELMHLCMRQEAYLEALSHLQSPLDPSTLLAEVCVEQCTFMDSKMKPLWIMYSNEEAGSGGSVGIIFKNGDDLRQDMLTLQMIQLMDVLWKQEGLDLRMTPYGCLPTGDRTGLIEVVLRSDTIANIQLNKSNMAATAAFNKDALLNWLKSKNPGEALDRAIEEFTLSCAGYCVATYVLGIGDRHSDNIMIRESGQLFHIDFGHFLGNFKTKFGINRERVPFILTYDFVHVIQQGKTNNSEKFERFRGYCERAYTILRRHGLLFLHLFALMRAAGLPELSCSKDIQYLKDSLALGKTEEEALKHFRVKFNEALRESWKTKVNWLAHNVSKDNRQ
PI3K-δ (PI3K(p1108/p857) (h)), sequence (P27986 whole entry partner, the tested form may be a part): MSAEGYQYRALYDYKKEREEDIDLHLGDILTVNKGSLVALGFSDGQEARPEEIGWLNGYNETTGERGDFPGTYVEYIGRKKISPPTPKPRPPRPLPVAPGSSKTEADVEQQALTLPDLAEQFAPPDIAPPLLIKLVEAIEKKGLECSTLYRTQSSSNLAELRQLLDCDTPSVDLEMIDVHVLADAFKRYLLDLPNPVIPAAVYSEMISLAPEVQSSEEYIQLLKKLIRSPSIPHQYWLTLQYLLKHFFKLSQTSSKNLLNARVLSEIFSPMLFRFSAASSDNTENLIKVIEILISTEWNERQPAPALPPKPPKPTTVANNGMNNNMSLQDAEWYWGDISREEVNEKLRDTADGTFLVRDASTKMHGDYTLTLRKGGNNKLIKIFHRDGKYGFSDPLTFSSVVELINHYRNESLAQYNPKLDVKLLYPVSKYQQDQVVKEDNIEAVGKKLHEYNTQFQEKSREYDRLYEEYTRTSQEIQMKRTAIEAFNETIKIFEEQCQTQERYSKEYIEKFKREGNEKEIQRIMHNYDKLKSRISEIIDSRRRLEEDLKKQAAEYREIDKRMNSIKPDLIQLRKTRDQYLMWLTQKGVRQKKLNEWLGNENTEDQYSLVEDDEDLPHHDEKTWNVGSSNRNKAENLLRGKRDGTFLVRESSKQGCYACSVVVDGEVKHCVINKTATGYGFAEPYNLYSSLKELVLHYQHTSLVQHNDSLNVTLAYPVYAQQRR

For the molecule `C[C@H](Nc1ncnc2[nH]ccc(=O)c12)c1c(Cl)c2cccc(S(=O)(=O)C3COC3)c2c(=O)n1-c1ccccc1` [Example 432, (S)-4-((1-(4-chloro-8-(oxetan-3-ylsulfonyl)-1-oxo-2-phenyl-1,2-dihydroisoquinolin-3-yl)ethyl)amino)pyrido[2,3-d]pyrimidin-5(8H)-one], the inhibition at 0.1 µM came out at 87% in assay [1] and 47% in assay [2].

On to `C[C@H](Nc1ncnc2[nH]ccc(=O)c12)c1c(Cl)c2cccc(S(=O)(=O)C(C)(C)C)c2c(=O)n1-c1ccccc1` [Example 433, (S)-4-((1-(8-(tert-butylsulfonyl)-4-chloro-1-oxo-2-phenyl-1,2-dihydroisoquinolin-3-yl)ethyl)amino)pyrido[2,3-d]pyrimidin-5(8H)-one], for which the inhibition at 0.1 µM in assay [1] turned out to be 8%; in assay [2], 24%.

With `CCSc1cccc2c(Cl)c([C@H](C)Nc3ncnc4[nH]ccc(=O)c34)n(-c3ccccc3)c(=O)c12` [Example 434, (S)-4-((1-(4-chloro-8-(ethylthio)-1-oxo-2-phenyl-1,2-dihydroisoquinolin-3-yl)ethyl)amino)pyrido[2,3-d]pyrimidin-5(8H)-one], the inhibition at 0.1 µM turned out to be 8% in assay [1] and 32% in assay [2].

Regarding `CC[S@@](=N)(=O)c1cccc2c(Cl)c([C@H](C)Nc3ncnc4[nH]ccc(=O)c34)n(-c3ccccc3)c(=O)c12` [Example 435, 4-(((S)-1-(4-chloro-8-((R)-ethylsulfonimidoyl)-1-oxo-2-phenyl-1,2-dihydroisoquinolin-3-yl)ethyl)amino)pyrido[2,3-d]pyrimidin-5(8H)-one], the inhibition at 0.1 µM in assay [1] was found to be 24%; in assay [2] it was 18%.

Take `CC[S@](=N)(=O)c1cccc2c(Cl)c([C@H](C)Nc3ncnc4[nH]ccc(=O)c34)n(-c3ccccc3)c(=O)c12` [Example 436, 4-(((S)-1-(4-chloro-8-((S)-ethylsulfonimidoyl)-1-oxo-2-phenyl-1,2-dihydroisoquinolin-3-yl)ethyl)amino)pyrido[2,3-d]pyrimidin-5(8H)-one]: the values for the inhibition at 0.1 µM in assay [1] and in assay [2] were 7% and 9%, respectively.

Turning to `C[C@H](Nc1ncnc2[nH]ccc(=O)c12)c1c(Cl)c2cccc(Oc3cccnc3)c2c(=O)n1-c1ccccc1` [Example 437, (S)-4-((1-(4-chloro-1-oxo-2-phenyl-8-(pyridin-3-yloxy)-1,2-dihydroisoquinolin-3-yl)ethyl)amino)pyrido[2,3-d]pyrimidin-5(8H)-one], the inhibition at 0.1 µM in assay [1] was found to be 33%; in assay [2], 53%.

For `C[C@H](Nc1ncnc2[nH]ccc(=O)c12)c1c(Cl)c2cccc(-c3cnc(C4(O)CCC4)nc3)c2c(=O)n1-c1ccccc1` [Example 438, (S)-4-((1-(4-chloro-8-(2-(1-hydroxycyclobutyl)pyrimidin-5-yl)-1-oxo-2-phenyl-1,2-dihydroisoquinolin-3-yl)ethyl)amino)pyrido[2,3-d]pyrimidin-5(8H)-one], the inhibition at 0.1 µM was determined as 87% in assay [1] and 64% in assay [2].

Turning to `C[C@H](Nc1ncnc2[nH]ccc(=O)c12)c1c(Cl)c2cccc(C(=O)NCc3ccncc3)c2c(=O)n1-c1ccccc1` [Example 439, (S)-4-chloro-1-oxo-3-(1-((5-oxo-5,8-dihydropyrido[2,3-d]pyrimidin-4-yl)amino)ethyl)-2-phenyl-N-(pyridin-4-ylmethyl)-1,2-dihydroisoquinoline-8-carboxamide], the inhibition at 0.1 µM in assay [1] was determined as 92%; in assay [2], 16%.

With `C[C@H](Nc1ncnc2[nH]ccc(=O)c12)c1c(Cl)c2cccc(C(=O)Nc3ccccc3)c2c(=O)n1-c1ccccc1` [Example 440, (S)-4-chloro-1-oxo-3-(1-((5-oxo-5,8-dihydropyrido[2,3-d]pyrimidin-4-yl)amino)ethyl)-N, 2-diphenyl-1,2-dihydroisoquinoline-8-carboxamide], the values for the inhibition at 0.1 µM in assay [1] and in assay [2] were 92% and 16%, respectively.

Regarding `C[C@H](O)c1cccc2c(Cl)c([C@H](C)Nc3ncnc4[nH]ccc(=O)c34)n(-c3ccccc3)c(=O)c12` [Example 441, 4-(((S)-1-(4-chloro-8-((S)-1-hydroxyethyl)-1-oxo-2-phenyl-1,2-dihydroisoquinolin-3-yl)ethyl)amino)pyrido[2,3-d]pyrimidin-5(8H)-one], the inhibition at 0.01 µM in assay [1] (compound at 0.01 μM, read-out: EXP_VALUE(% Inhibition) PI3K-δ 0.01 μM) was 54%; in assay [2] (compound at 0.01 μM, read-out: EXP_VALUE(% Inhibition) DNA-PK(h) 0.01 μM), 35%.

The record behind these values is patent publication US20230072683A1, “PYRIDO-PYRIMIDIN DERIVATIVES AND PHARMACEUTICAL COMPOSITION, FOR USE IN PREVENTING OR TREATING PI3 KINASE RELATED DISEASES, COMPRISING SAME AS ACTIVE INGREDIENT” (BORYUNG PHARMACEUTICAL CO., LTD, priority 2019, published 2023).
